The target of series [1] is T1, recombinant human Oxytocin-1 (hOT) receptor (Homo sapiens, UniProt P30559).
T1 construct: expressed in transfected cells
T1 sequence (P30559 1-389): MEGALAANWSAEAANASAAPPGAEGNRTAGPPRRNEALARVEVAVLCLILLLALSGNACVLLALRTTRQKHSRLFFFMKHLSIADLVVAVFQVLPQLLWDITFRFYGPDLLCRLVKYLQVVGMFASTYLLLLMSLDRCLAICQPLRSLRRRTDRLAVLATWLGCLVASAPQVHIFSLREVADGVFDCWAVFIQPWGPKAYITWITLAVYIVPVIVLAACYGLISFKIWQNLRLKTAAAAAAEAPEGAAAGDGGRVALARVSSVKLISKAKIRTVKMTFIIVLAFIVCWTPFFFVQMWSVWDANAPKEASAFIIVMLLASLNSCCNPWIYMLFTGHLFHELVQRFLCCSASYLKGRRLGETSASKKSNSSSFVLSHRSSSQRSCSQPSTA
Briefly: Antagonist affinity at human Oxytocin-1 receptors using FLIPR ([Ca2+]i). It is filed as cell-based. The conditions noted are these: Assay 1, CHO-hOT cells, oxytocin at EC80, read-out: fpKi. On the procedure:
Determination of Antagonist Affinity at Human Oxytocin-1 Receptors using FLIPR
Adherent Chinese Hamster Ovary (CHO) cells, stably expressing the recombinant human Oxytocin-1 (hOT) receptor, were maintained in culture in DMEM:F12 medium (Sigma, cat no D6421), supplemented with 10% heat inactivated foetal calf serum
(Gibco/Invitrogen, cat. no. 01000-147), 2 mM L-glutamine (Gibco/Invitrogen, cat. no. 25030-024) and 0.2 mg/ml G418 (Gibco/Invitrogen, cat no. 10131-027). Cells were grown as monolayers under 95%:5% air:CO2 at 37° C. and passaged every 3-4 days using TrypLE™ Express (Gibco/Invitrogen, cat no. 12604-013).
Measurement of [Ca^2+]i using the FLIPR™
CHO-hOT cells were seeded into black walled clear-base 384-well plates (Nunc) at a density of 10,000 cells per well in culture medium as described above and maintained overnight (95%:5% air:CO2 at 37° C.). […] Cells were then incubated for an additional 30 min at 37° C. with either buffer alone or buffer containing OT antagonist, before being placed into a FLIPR™ (Molecular Devices, UK) to monitor cell fluorescence (λex=488 nm, λEM=540 nm) before and after the addition of a submaximal concentration of oxytocin (EC80).
Functional responses using FLIPR were analysed using Activity Base Version 5.0.10.

The target of series [2] is T2, human recombinant oxytocin receptors (Homo sapiens, UniProt P30559).
T2 construct: expressed in transfected cells; host or cells: membranes of CHO cells
T2 sequence (P30559 1-389): T1 sequence (P30559 1-389)
The series can be described thus: Oxytocin binding assay ([3H]-oxytocin, CHO cell membranes). The settings on record: Assay 2, Ki from IC50 by Cheng and Prusoff. On the procedure:
Membranes were prepared from CHO cells expressing human recombinant oxytocin receptors. The membrane preparation was frozen in aliquots at −70° C. until used.
Membranes (˜50 ug) were incubated in 200 ul of assay buffer (50 mM Tris, 10 mM MgCl2, and 0.1% bovine serum albumin, pH 7.5) containing ˜2.4 nM of [3H]-oxytocin in the absence (total binding) or presence (non-specific binding) of 1 uM unlabeled oxytocin and increasing concentrations of the compounds in Examples 1 to 6 or comparator compounds. Incubations were performed at room temperature for 60 minutes. The reactions were stopped with 3 ml of ice cold buffer and filtered through Whatman GF/C filter paper presoaked in 0.3% polyethylenimine. The filters were washed 4 times with 3 ml buffer using a Brandel cell harvester. The filters were counted in 3 ml Ready Safe scintillation fluid (Beckman).
Specific binding represented approximately 90% of total binding.
IC50 values were determined from competition binding experiments using non-linear regression analysis (GraphPad) and converted to Ki using the method of Cheng and Prusoff, 1974. Data are reported as mean values.

Series [3] in a line: In vitro intrinsic clearance in microsomes, rat. The conditions noted are these: Assay 3, rat female microsomes, 0.5 uM compound, 0.5 mg/mL protein, 37° C.; for microsomal CLint at 0.5 uM: pH 7.4. It is filed as in vitro ADME. On the procedure: (§1) Determination of In vitro Intrinsic Clearance in Microsomes
(§2) NADP regeneration buffer for use in incubations was prepared fresh on the assay day. It contained 7.8 mg glucose-6-phosphate (mono-sodium salt), 1.7 mg NADP and 6 Units glucose-6-phosphate dehydrogenase per 1 mL of 2% sodium bicarbonate. Microsomes (human, female; cynomolgus monkey, female; dog, female; rat, female) were prepared in pH7.4 phosphate buffer and contained 0.625 mg protein/mL. Unless stated, all subsequent steps were performed by a Tecan Genesis 150/8 RSP. A 1.25 mM stock solution of the compounds was prepared in Acetonitrile/water (1:1). 25 ul of the 1.25 mM stock solution was added to 600 ul of Acetonitrile/water (1:1) to give a 50 uM solution. For each species, the 50 uM solutions (10 uL) were added to microsomes (790 uL) in a microplate (Porvair, 96 deepwell, square). 400 uL of the microsomal solution containing the compound was transferred to a microplate (Porvair, 96 deepwell, round) and was pre-warmed at 37° C. for five minutes prior to initiation of incubations. All incubations were initiated by addition of 100 uL of
(§3) NADP regeneration system to the pre-warmed microsomes. The mixtures were incubated at 37° C. in a Techne heating block. Following 0, 3, 6, 12 and 30 minutes incubation, 20 uL aliquots were taken and added to 100 uL of acetonitrile containing internal standard.
(§4) For determination of the rate of metabolism, incubations were performed at a compound concentration of 0.5 uM and a protein concentration of 0.5 mg/mL. The concentration of solvent in the incubation was 0.5%.
(§5) Test compound concentrations were determined by LC/MS/MS; results were reported as analyte:internal standard peak area ratios.
(§6) The rate of disappearance was calculated by fitting a single exponential decay to the concentration-time curve using Excel and intrinsic clearance was calculated using the following formula: […]

Series [4] is described as follows: In vitro intrinsic clearance in microsomes, dog. It is filed as in vitro ADME. The settings on record: Assay 3, dog female microsomes, 0.5 uM compound, 0.5 mg/mL protein, 37° C.; for microsomal CLint at 0.5 uM: pH 7.4. On the procedure:
as §1, §2, §3, §4, §5, §6

Series [5] can be described thus: In vitro intrinsic clearance in microsomes, human. It is filed as in vitro ADME. The settings on record: Assay 3, human female microsomes, 0.5 uM compound, 0.5 mg/mL protein, 37° C.; for microsomal CLint at 0.5 uM: pH 7.4. The method, then: as §1, §2, §3, §4, §5, §6
The nature of series [6]: In vitro intrinsic clearance in microsomes, cynomolgus monkey. The settings on record: Assay 3, cynomolgus monkey female microsomes, 0.5 uM compound, 0.5 mg/mL protein, 37° C.; for microsomal CLint at 0.5 uM: pH 7.4. It is filed as in vitro ADME. The method, then:
as §1, §2, §3, §4, §5, §6

Usually microsomal CLint stands for the capacity of the preparation to metabolise the compound, expressed as a volume cleared per time. For `Cc1ccc([C@H](C(=O)N(C)C)N2C(=O)[C@@H](C3Cc4ccccc4C3)NC(=O)[C@H]2CC(C)C)cn1` [Comparator X, (2R)-2-[(3R,6R)-3-(2,3-dihydro-1H-inden-2-yl)-6-isobutyl-2,5-dioxopiperazin-1-yl]-N,N-dimethyl-2-(6-methylpyridin-3-yl)ethanamide, reference compound], the Ki in series [1] was 0.631 to 7.94 nM; in series [2] it was 0.0316 to 1.58 nM. The intrinsic metabolic clearance (microsomal CLint) at 0.5 uM in series [3] lay within 1 to 8 mL/min/g; in series [4], 1 to 8 mL/min/g; in series [5], 9 to 15 mL/min/g.
In the case of `CC[C@H](C)[C@@H]1C(=O)N[C@H](C2Cc3ccccc3C2)C(=O)N1[C@@H](C(=O)NC)c1ccc(C)nc1C` [Example 1, (2R)-2-{(3R,6R)-3-(2,3-Dihydro-1H-inden-2-yl)-6-[(1S)-1-methylpropyl]-2,5-dioxo-1-piperazinyl}-2-(2,6-dimethyl-3-pyridinyl)-N-methylethanamide], the microsomal CLint at 0.5 uM in series [3], in series [4], in series [6] and in series [5] was 1 to 8 mL/min/g each time.
`CC[C@H](C)[C@@H]1C(=O)N[C@H](C2Cc3ccccc3C2)C(=O)N1[C@@H](C(=O)N(C)C)c1ccc(C)nc1C` [Example 2, (2R)-2-{(3R,6R)-3-(2,3-Dihydro-1H-inden-2-yl)-6-[(1S)-1-methylpropyl]-2,5-dioxo-1-piperazinyl}-2-(2,6-dimethyl-3-pyridinyl)-N,N-dimethylethanamide]: the microsomal CLint at 0.5 uM in series [3] and in series [4] was 1 to 8 mL/min/g throughout. For the same molecule, the “Microsomal Cl, Cynomolgus monkey” value in series [6] is recorded as “++, +++”. The “Microsomal Cl, Human” value in series [5] is “+, +”.
For `CC[C@H](C)[C@@H]1C(=O)N[C@H](C2Cc3ccccc3C2)C(=O)N1[C@@H](C(=O)N1CCOCC1)c1ccc(C)nc1C` [Example 3, (3R,6R)-3-(2,3-dihydro-1H-inden-2-yl)-1-[(1R)-1-(2,6-dimethyl-3-pyridinyl)-2-(4-morpholinyl)-2-oxoethyl]-6-[(1S)-1-methylpropyl]-2,5-piperazinedione], the microsomal CLint at 0.5 uM in series [3], in series [4], in series [6] and in series [5] was 1 to 8 mL/min/g each time.
Regarding `CC[C@H](C)[C@@H]1C(=O)N[C@H](C2Cc3ccccc3C2)C(=O)N1[C@@H](C(=O)N(C)C)c1cnc(C)cc1C` [Example 4, (2R)-2-{(3R,6R)-3-(2,3-Dihydro-1H-inden-2-yl)-6-[(1S)-1-methylpropyl]-2,5-dioxo-1-piperazinyl}-2-(4,6-dimethyl-3-pyridinyl)-N,N-dimethylethanamide], the “Microsomal Cl, Rat” value in series [3] is recorded as “+, +”. Moreover, the “Microsomal Cl, Dog” value in series [4] is reported as “+, +”. The “Microsomal Cl, Cynomolgus monkey” value in series [6] is “+++++, +++++”. Also, the “Microsomal Cl, Human” value in series [5] is “++, +”.
For `CC[C@H](C)[C@@H]1C(=O)N[C@H](C2Cc3ccccc3C2)C(=O)N1[C@@H](C(=O)NC)c1cnc(C)cc1C` [Example 5, (2R)-2-{(3R,6R)-3-(2,3-Dihydro-1H-inden-2-yl)-6-[(1S)-1-methylpropyl]-2,5-dioxo-1-piperazinyl}-2-(4,6-dimethyl-3-pyridinyl)-N-methylethanamide], the microsomal CLint at 0.5 uM in series [3] was in the range of 1 to 8 mL/min/g; in series [4], 1 to 8 mL/min/g; in series [6] it was 16 to 20 mL/min/g; in series [5], 1 to 8 mL/min/g.
For `CC[C@H](C)[C@@H]1C(=O)N[C@H](C2Cc3ccccc3C2)C(=O)N1[C@@H](C(=O)N1CCOCC1)c1cnc(C)cc1C` [Example 6, (3R,6R)-3-(2,3-dihydro-1H-inden-2-yl)-1-[(1R)-1-(4,6-dimethyl-3-pyridinyl)-2-(4-morpholinyl)-2-oxoethyl]-6-[(1S)-1-methylpropyl]-2,5-piperazinedione], the microsomal CLint at 0.5 uM in series [3] fell in the range of 1 to 8 mL/min/g; in series [4], 1 to 8 mL/min/g; in series [6] it was 16 to 20 mL/min/g; in series [5], 1 to 8 mL/min/g.

(Values after patent US9408851B2, “Compounds” (Glaxo Group Limited, priority 2004, dated 2016).)
